Legend:
Conditions in all cases: 10 µM
[1] = tested on: HIV-1/H5N1 pseudovirus; assay: organism not typed; assay type: cell-based, influenza A virus A/Goose/Qinghai/59/05 (H5N1)
[2] = tested on: A549 cells
[3] = tested on: HIV-1/LASV pseudovirus; assay: microbe, parasite or virus in culture; assay type: cell-based
[4] = tested on: HIV-1/EBOV pseudovirus

Row | Compound | Inhibition HIV/H5N1 [1] | Cell Viability [2] | Inhibition HIV/LASV [3] | Inhibition HIV/EBOV [4]
1 | CN(C)Cc1ccc(-c2cc3cc(Br)ccc3nc2OCc2ccccc2)cc1 [SYL1675] | 98.13% | 88.37% | 91.37% | 99.89%
2 | COc1nc2ccc(Br)cc2cc1C(c1ccccc1)n1cc(CN(C)C)c2ccccc21 (centres unmarked) [SYL1629] | 29.75% | 90.62% | 88.22% | 99.91%
3 | COc1nc2ccccc2cc1C(O)(Cc1cccc(F)c1)c1cccc(CN(C)C)c1 (centres unmarked) [SYL1659] | 96.52% | 36.09% | 97.39% | 99.09%
4 | COc1nc2ccccc2cc1C(c1ccccc1)n1c(=O)n(CCCN(C)C)c2ccccc21 (centres unmarked) [SYL1625] | -0.36% | 86.95% | 87.77% | 99.90%
5 | CCN(CC)CCc1ccc(-c2cc3cc(Br)ccc3nc2OCc2cccc3ccccc23)cc1 [SYL1671] | 92.36% | 88.97% | 89.90% | 99.87%
6 | CN(C)CCc1cccc(-c2cc3cc(Br)ccc3nc2OCc2cccc3ccccc23)c1 [SYL1643] | 72.74% | 85.39% | 83.87% | 99.82%
7 | CN(C)C(=O)c1cccc(-c2cc3ccccc3nc2Oc2cccc3ccccc23)c1 [SYL1646] | -23.29% | 83.55% | 82.50% | 99.92%
8 | CN(C)Cc1ccc(-c2cc3cc(Br)ccc3nc2SCc2ccccc2)cc1 [SYL1699] | 94.56% | 105.32% | 93.73% | 99.94%
9 | Fc1cccc(COc2nc3ccc(Br)cc3cc2-c2cccc(Oc3ccccn3)c2)c1 [SYL1647] | 44.09% | 82.66% | 89.08% | 99.94%
10 | COc1nc2ccccc2cc1C(O)(Cc1cccc(F)c1)c1ccccc1CN1CCOCC1 (centres unmarked) [SYL1668] | 74.86% | 79.06% | 86.46% | 99.87%
11 | CN(C)Cc1ccc(-c2cc3cc(Br)ccc3nc2OCc2cccc3ccccc23)cc1F [SYL1678] | 93.90% | 122.25% | 97.25% | 99.38%
12 | CN(C)CCC(O)(c1cccc(F)c1)C1c2ccccc2Sc2ccccc21 (centres unmarked) [SYL1634] | 83.95% | 81.21% | 83.87% | 99.53%
13 | COc1nc2ccccc2cc1C(c1ccccc1)n1c(=O)n(CCN(C)C)c2ccccc21 (centres unmarked) [SYL1624] | 53.54% | 86.63% | 85.88% | 99.82%
14 | COc1ccccc1COc1nc2ccc(Br)cc2cc1-c1ccc(CN(C)C)cc1 [SYL1705] | 59.98% | 86.34% | 88.92% | 99.76%
15 | COc1ccc2nc(OCc3cccc4ccccc34)c(-c3ccc(CN(C)C)cc3)cc2c1 [SYL1702] | 87.31% | 89.90% | 89.93% | 99.95%
16 | CC(=NOCCN(C)C)c1cc2ccccc2nc1Oc1cccc2ccccc12 [SYL1626] | 44.19% | 86.91% | 85.39% | 99.66%
17 | Brc1ccc2nc(Oc3cccc4ccccc34)c(-c3ccccc3)cc2c1 [SYL1653] | 64.36% | 82.57% | 87.04% | 99.85%
18 | CN(C)Cc1ccc(-c2cc3cc(Br)ccc3nc2OCc2cccc(F)c2)cc1 [SYL1715] | 95.43% | 84.72% | 76.84% | 99.61%

Row | Compound | Inhibition HIV/H5N1 [1] | Cell Viability [2] | Inhibition HIV/LASV [3] | Inhibition HIV/EBOV [4]
19 | COc1nc2ccccc2cc1C(Nc1ccccc1NCCN(C)C)c1ccccc1 (centres unmarked) [SYL1621] | 97.96% | 52.36% | 99.14% | 99.90%
20 | COc1ccc(CC(O)(c2ccccc2CN(C)C)c2cc3cc(OC)ccc3nc2OC)cc1 (centres unmarked) [SYL1663] | 88.29% | 89.15% | 89.19% | 99.90%
21 | CN(C)CCN1CCN(Cc2ccc(-c3cc4cc(Br)ccc4nc3OCc3cccc4ccccc34)cc2)CC1 [SYL1688] | 91.36% | 80.00% | 88.12% | 99.92%
22 | CN(C)Cc1ccc(-c2cc3cc(Br)ccc3nc2OCc2ccncc2)cc1 [SYL1696] | 97.45% | 26.82% | 98.53% | 99.25%
23 | CN(C)CCNc1nc2ccc(Br)cc2cc1-c1ccc(CN(C)C)cc1 [SYL1721] | 98.20% | 1.26% | 99.50% | 99.63%
24 | COc1cc(-c2cc3cc(Br)ccc3nc2OCc2cccc3ccccc23)ccc1CN(C)C [SYL1709] | 94.56% | 74.44% | 81.68% | 99.76%
25 | COc1nc2ccc(Br)cc2cc1C(c1ccccc1)C1(OC(=O)c2ccccc2)CCN(C)CC1 (centres unmarked) [SYL1645] | 45.37% | 82.47% | 86.68% | 99.92%
26 | CN(C)Cc1cccc(-c2cc3cc(Br)ccc3nc2OCCc2cccc3ccccc23)c1 [SYL1664] | 50.44% | 84.59% | 86.44% | 99.90%
27 | C[N+](C)(C)Cc1ccc(-c2cc3cc(Br)ccc3nc2OCc2cccc3ccccc23)cc1.[I-] [SYL1685] | 65.25% | 103.42% | 93.29% | 99.90%
28 | COc1cc(CN(C)C)ccc1-c1cc2cc(Br)ccc2nc1OCc1cccc2ccccc12 [SYL1716] | 98.20% | 1.73% | 99.34% | 99.70%
29 | CN(C)Cc1ccc(-c2cc3cc(Br)ccc3nc2OCc2ccc(-c3ccccc3)cc2)cc1 [SYL1690] | 98.15% | 80.30% | 86.95% | 99.85%
30 | CN(C)Cc1cccc(-c2cc3cc(Br)ccc3nc2OCc2cccc(F)c2)c1 [SYL1666] | 87.06% | 81.28% | 91.03% | 99.92%
31 | COc1nc2ccc(Br)cc2cc1C(O)(Cc1cccc(F)c1)c1ccccc1CN(C)C (centres unmarked) [SYL1649] | 79.45% | 81.62% | 90.46% | 99.90%
32 | COc1nc2ccc(Br)cc2cc1C(c1ccccc1)N(CCN(C)C)c1cccc2ccccc12 (centres unmarked) [SYL1623] | 105.28% | 87.19% | 15.39% | 97.68%
33 | CN1CCC(c2ccccc2)(C(O)(c2ccccc2)c2ccc3ccccc3c2)CC1 (centres unmarked) [SYL1644] | 97.63% | 78.35% | 92.36% | 99.92%
34 | CN(C)Cc1ccc(-c2cc3cc(Br)ccc3nc2OCc2cccc3ccccc23)c(F)c1 [SYL1682] | 78.74% | 84.09% | 94.69% | 99.91%
35 | COc1ccc2nc(OCc3cccc4ccccc34)c(-c3cccc(CN(C)C)c3)cc2c1 [SYL1667] | 85.49% | 83.17% | 85.91% | 99.94%

Source: PMC6315506 (Viruses, 2018)
